# Measured values: patent US20040023972A1, “Use of substituted imidazo[1,2-a]-pyridin-, -pyrimidin-and-pyrazin-3-yl-amine derivatives in the preparation of medicaments for inhibiting NOS” (Gruenenthal GmbH, priority 2000, published 2004)
# Molecular target: T1, NO synthase (Rattus norvegicus, UniProt P29476)
# T1 construct: the supernatant was then removed by decantation and frozen in portions at −80° C; from tissue; host or cells: rat cerebellum, 20,000 g supernatant of homogenate
# Test: HTS-NOS assay (NOS assay): conversion of radioactive arginine, cation-exchanger filter plate
# Format: biochemical
# Conditions: 10 μM
# Method: This assay enables the percentage inhibition of NO synthase by an active ingredient to be determined by measuring the NOS activity under the action of the active ingredient. NO synthase is mixed together with radioactively labelled arginine and the active ingredient under suitable conditions. After terminating the NO-forming reaction at a given time, the amount of unconverted arginine is determined directly or indirectly. A comparison of that amount with the amount of arginine that remains in a mixture of NOS and arginine without the addition of active ingredient and under otherwise identical conditions gives the % inhibition of NO synthase by the tested active ingredient. This assay can be carried out as follows:
# (a) incubation of NO synthase with labelled arginine as substrate in a reaction vessel,
# (b) separation of the labelled arginine from the labelled citrulline optionally formed as a product of the enzymatic reaction, at a time at which the citrulline concentration is increasing,
# (c) measurement of the amount of arginine remaining in each case.
# Separation is carried out over a filter plate membrane.
# This NOS assay is suitable especially for “high throughput screening” (HTS) on microtitre plates (MTP).
# In this HTS-NOS assay, radioactive arginine is used as substrate. The assay volume can be chosen in the range from 25 μl to 250 μl, according to the type of microtitre plate (MTP). Depending on the source of the enzyme used, co-factors and co-enzymes are added. Incubation of the batches on this microtitre plate (assay MTP) according to step (a) is carried out at room temperature and is for 5 to 60 minutes according to the enzyme activity used (units). At the end of the incubation (step (a)), the plate is placed into a cell harvester which is equipped with a MTP having a cation-exchanger membrane as the filter base (filter MTP). All batches of the assay MTP are transferred to the filter MTP and filtered off with suction over a cation-exchanger filter plate, a paper filter charged with phosphate groups. The filter MTP is then washed with buffer or water. By means of this procedure, the arginine substrate that remains is bound to the cation exchanger, while the enzymatically formed radioactive citrulline is washed out quantitatively. After drying the filter MTP and adding scintillation liquid, the bound arginine can be counted using a scintillation counter. An uninhibited NOS reaction is reflected in low radioactivity. An inhibited enzyme reaction means that the radioactive arginine has not been converted. This means that a high level of radioactivity is found on the filter.
# Rat cerebella were used as the starting tissue. The animals were anaesthetized and sacrificed, the brain tissue, the cerebellum, was removed by dissection, 1 ml of enzyme preparation buffer was added per rat cerebellum (4° C.), and disintegration was carried out using a Polytron homogeniser for 1 minute at 6000 rpm, followed by centrifugation for 15 minutes at 4° C. and 20,000 g; the supernatant was then removed by decantation and frozen in portions at −80° C. (the precipitate was discarded).
# 96-well MTP having a well capacity of <250 μl were used.
# Pipetting sequence: see Table 1.
# When the pipetting operation was complete, a cover was placed on the MTP (assay MTP), and incubation was at 25° C. (room temperature (RT)) for from 5 to 60 minutes, according to the amount and activity of the enzyme used.
# The contents of the assay MTP were then transferred with the aid of a 96-well cell harvester to a 96-well cation exchanger MTP (filter MTP) and filtered off with suction. This was followed by washing once with […] of H2O (from a bath).
# The plate was then dried for 1 hour at 60° C. in a drying cabinet. The underside of the filter MTP was then accurately sealed from beneath with a “back seal”. 35 μl of scintillation fluid per well were then added by means of a pipette. The upper side of the plate was also sealed with a “top seal”. […]
row,Compound,HTS-NOS assay: % inhibition (10 μM) [%]
1,"CC(=O)OCc1ccc(-c2nc3ncccn3c2N(C(C)=O)C(C)(C)CC(C)(C)C)o1 [Example 249, acetic acid 5-{3-[acetyl-(1,1,3,3-tetramethyl-butyl)-amino]-imidazo[1,2-a]-pyrimidin-2-yl}-furan-2-yl methyl ester]",54
2,"C#[N+]CCCCCCN(C(C)=O)c1c(-c2ccccc2OC)nc2cc(C)cc(C)n12 [Example 240, (6-{acetyl-[2-(2-methoxy-phenyl)-5,7-dimethyl-imidazo[1,2-a]pyridin-3-yl]-amino}-hexyl)-methylidyne-ammonium]",61
3,"[C-]#[N+]CCCCCCN(C(C)=O)c1c(-c2cccnc2)nc2cc(C)ccn12 [Example 241, {6-[acetyl-(7-methyl-2-pyridin-3-yl-imidazo[1,2-a]pyridin-3-yl)-amino]-hexyl}-methylidyne-ammonium]",62
4,"CC(=O)N(c1c(-c2ccccc2C(F)(F)F)nc2ccccn12)C(C)(C)C [Example 245, N-tert-butyl-N-[2-(2-trifluorO-methyl-phenyl)-imidazo[1,2-a]pyridin-3-yl]-acetamide]",56
5,"[C-]#[N+]CCCCCCNc1c(-c2ccccc2OC)nc2cc(C)cc(C)n12 [Example 61, {6-[2-(2-Methoxy-phenyl)-5,7-dimethyl-imidazo[1,2-a]pyridin-3-ylamino]-hexyl}-methylidyne-ammonium]",73

# Same assay, conditions: Table 5; concentration not given
row,NOS assay % inhibition [%],Compound
1,57,"Cc1cc(C)n2c(NC3CCCC3)c(-c3ccoc3)nc2c1.Cl [Example 307, Cyclopentyl-(2-furan-3-yl-5,7-dimethyl-imidazo(1,2-a]pyridin-3-yl)-amine hydrochloride]"

# Same assay, conditions: read-out: HTS-NOS assay: % inhibition (10 μM)
row,inhibition at 10 µM [%],Compound
1,68,"Cc1cc(C)n2c(NC(C)(C)C)c(C3CCCCC3)nc2c1 [Example 22, Tert-butyl-(2-cyclohexyl-5,7-dimethyl-imidazo[1,2-a]pyridin-3-yl)-amine]"
2,60,"Cc1cc(C)n2c(NC(C)(C)CC(C)(C)C)c(-c3cccc(O)c3)nc2c1 [Example 31, 3-[5,7-Dimethyl-3-(1,1,3,3-tetramethyl-butylamino)-imidazo[1,2-a]pyridin-2-yl]-phenol]"
3,67,"CC(=O)N(c1c(-c2cccnc2)nc2cc(C)ccn12)C1CCCCC1 [Example 187, N-cyclohexyl-N-(7-methyl-2-pyridin-3-yl-imidazo[1,2-a]pyridin-3-yl)-acetamide]"
4,55,"CCCc1cccc2nc(-c3cccs3)c(N(C(C)=O)C(C)(C)C)n12 [Example 278, N-tert-butyl-N-(5-propyl-2-thiophen-2-yl-imidazo[1,2-a]pyridin-3-yl)-acetamide]"
5,51,"COc1cc(-c2nc3nc(Cl)cc(N)n3c2N(C(C)=O)C2CCCCC2)ccc1OC(C)=O [Example 251, acetic acid 4-[3-(acetyl-cyclohexyl-amino)-5-amino-7-chloro-imidazo[1,2-a]-pyrimidin-2-yl]-2-methoxy-phenyl ester]"
6,51,"CC(=O)N(c1c(-c2ccc(C(=O)O)o2)nc2ccc(C)cn12)C(C)(C)CC(C)(C)C [Example 282, 5-{3-[acetyl-(1,1,3,3-tetramethyl-butyl)-amino]-6-methyl-imidazo[1,2-a]pyridin-2-yl}-furan-2-carboxylic acid]"
7,57,"COc1ccccc1-c1nc2cc(C)ccn2c1N(C(C)=O)C(C)(C)CC(C)(C)C [Example 199, N-[2-(2-methoxy-phenyl)-7-methyl-imidazo[1,2-a]pyridin-3-yl]-N-(1,1,3,3-tetramethyl-butyl)-acetamide]"
8,60,"CC(=O)N(c1c(-c2ccco2)nc2cc(C)cc(C)n12)C1CCCCC1 [Example 203, N-cyclohexyl-N-(2-furan-2-yl-5,7-dimethyl-imidazo[1,2-a]pyridin-3-yl)-acetamide]"
9,52,"Cc1ccn2c(NC(C)(C)CC(C)(C)C)c(-c3ccc(-c4ccccc4Cl)o3)nc2c1 [Example 80, {2-[5-(2-Chlorophenyl)-furan-2-yl]-7-methyl-imidazo[1,2-a]pyridin-3-yl}-(1,1,3,3-tetramethyl-butyl)-amine]"
10,54,"CCCc1cccc2nc(-c3cccnc3)c(N(C(C)=O)C(C)(C)C)n12 [Example 265, N-tert-butyl-N-(5-propyl-2-pyridin-3-yl-imidazo[1,2-a]pyridin-3-yl)-acetamide]"
11,53,"CCCc1cccc2nc(-c3ccco3)c(N(C(C)=O)C(C)(C)CC(C)(C)C)n12 [Example 228, N-(2-furan-2-yl-5-propyl-imidazo[1,2-a]pyridin-3-yl)-N-(1,1,3,3-tetramethylbutyl)-acetamide]"
12,63,"CCCCN(C(C)=O)c1c(-c2cccc(OC)c2OC)nc2cc(C)cc(C)n12 [Example 171, N-butyl-N-[2-(2,3-dimethoxy-phenyl)-5,7-dimethyl-imidazo[1,2-a]pyridin-3-yl]-acetamide]"
13,52,"CCc1ccn2c(NCc3ccccc3Cl)c(-c3ccco3)nc2c1 [Example 316, (2-Chloro-benzyl)-(7-ethyl-2-furan-2-yl-imidazo[1,2-a]pyridin-3-yl)-amine]"
14,60,"Cc1cc(C)n2c(NC(C)(C)CC(C)(C)C)c(-c3ccccc3C)nc2c1 [Example 38, (5,7-Dimethyl-2-o-tolyl-imidazo[1,2-a]-pyridin-3-yl)-(1,1,3,3-tetramethyl-butyl)-amine]"
15,50,"COC(=O)CN(C(C)=O)c1c(-c2cccc(O)c2)nc2ccc(C)cn12 [Example 244, {acetyl-[2-(3-hydroxy-phenyl)-6-methyl-imidazo[1,2-a]pyridin-3-yl]-amino}-acetic acid methyl ester]"
16,54,"CSc1ccc(-c2nc3ncccn3c2N(C(C)=O)C(C)(C)C)s1 [Example 221, N-tert-butyl-N-[2-(5-methylsulfanyl-thiophen-2-yl)-imidazo[1,2-a]pyrimidin-3-yl]-acetamide]"
17,52,"COc1cccc(-c2nc3c(C)cccn3c2NC(C)(C)CC(C)(C)C)c1OC [Example 117, [2-(2,3-Dimethoxy-phenyl)-8-methyl-imidazo[1,2-a]pyridin-3-yl]-(1,1,3,3-tetramethyl-butyl)-amine]"
18,69,"Cc1ccn2c(NC(C)(C)CC(C)(C)C)c(-c3ccncc3)nc2c1 [Example 29, (7-Methyl-2-pyridin-4-yl-imidazo[1,2-a]-pyridin-3-yl)-(1,1,3,3-tetramethyl-butyl)-amine]"
19,56,"CC(C)(C)Nc1c(-c2ccc(C(=O)O)s2)nc2cnccn12 [Example 119, 5-(3-Tert-butylamino-imidazo[1,2-a]pyrazin-2-yl)-thiophene-2-carboxylic acid]"
20,59,"Cc1ccn2c(NC(C)(C)CC(C)(C)C)c(-c3ccccc3C)nc2c1 [Example 46, (7-Methyl-2-o-tolyl-imidazo[1,2-a]pyridin-3-yl)-(1,1,3,3-tetramethyl-butyl)-amine]"
21,55,"CCCCN(C(C)=O)c1c(-c2ccccc2OC)nc2ccccn12 [Example 237, N-butyl-N-[2-(2-methoxy-phenyl)-imidazo[1,2-a]pyridin-3-yl]-acetamide]"
22,66,"COc1ccccc1-c1nc2cc(C)cc(C)n2c1Nc1c(C)cccc1C [Example 79, (2,6-Dimethyl-phenyl)-[2-(2-methoxy-phenyl)-5,7-dimethyl-imidazo[1,2-a]pyridin-3-yl]-amine]"
23,50,"COC(=O)CNc1c(C)nc2cc(C)ccn12 [Example 18, (2,7-Dimethyl-imidazo[1,2-a]pyridin-3-ylamino)-acetic acid methyl ester]"
24,53,"Cc1cccn2c(NC(C)(C)C)c(C3CCCCC3)nc12 [Example 123, Tert-butyl-(2-cyclohexyl-8-methyl-imidazo[1,2-a]pyridin-3-yl)-amine]"
